Here are results for one substance from patent publication US20230118517A1, “METHODS OF TREATING MULTIPLE MYELOMA” (Seagen Inc., priority 2020, published 2023).

One data set concerns NF-κB p65. In words: NF-κB p65 activity ELISA on nuclear extract. It counts as cell-based. The settings on record: NCI-H929, 20 μg/mL SEA-BCMA, 0.2 μM Nirogacestat. On the procedure:
The secondary mechanism of action of SEA-BCMA is to block BCMA proliferative cell signaling. Increased BCMA from GSI treatment is expected to induce increased BCMA signaling. Therefore, the block of this enhanced signaling by SEA-BCMA was tested. BCMA-expressing NCI-H929 cells were serum-starved with and without 0.2 μM Nirogacestat (purchased from SelleckChem) for 16 hrs. Cells were then bound with and without 20 μg/mL SEA-BCMA and incubated with and without 1 μg/ml recombinant human APRIL (R&D Systems) for 20 minutes at 37° C. in the presence or absence of 0.2 μM Nirogacestat. 1 μg of nuclear extract was assayed in duplicate for NF-κB p65 activity by ELISA (TransAM NFκB Chemi p65, Active Motif).

For data set [1], the system named is MM1R myeloma target cells. In words: PBMC-mediated MM1R target cell killing, first experiment (48 hrs, 3 μM pomalidomide). The format is cell-based. The settings on record: combined with Pomalidomide, benchmarked against elotuzumab and WT-BCMA, N=2. On the procedure: (§1) Experiments were performed to test whether SEA-BCMA combines effectively with pomalidomide in vitro by combining PBMC effector cells with MM1R target cells treated with both pomalidomide and SEA-BCMA or antibody controls. The first experiment (FIG. 12A) benchmarks against MM standard of care elotuzumab and nonfucosylated parent BCMA antibody. The second experiment (FIG. 12B) benchmarks against MM standard of care daratumumab. MM1R target cells express 15,000 copies of BCMA, 12,000 copies of CS1 (elotuzumab target), and 36,000 copies of CD38 (daratumumab target).
In the first experiment (FIG. 12A), normal donor PBMCs of the FcγRIII V/F genotype were mixed with CFSE (Invitrogen cat #V12883) labeled MM1R myeloma target cells at an effector-to-target cell ratio of 10:1. The mixture was treated with a dose range of the following antibodies: SEA-BCMA, elotuzumab, WT-BCMA (fucosylated parent Ab), or non-binding hIgG1k antibody control (Sigma cat #15154) with or without 3 μM pomalidomide (APEx Bio, cat #A4211). After 48 hrs, the % live MM1R cells were then determined using the viability dye 7-AAD (BD Biosciences, cat #559925) by flow cytometry.

Data set [2] deals with MM1R myeloma target cells. In words: PBMC-mediated MM1R target cell killing, second experiment (PBMC pretreated 5 days, 0.5 μM pomalidomide). The format is cell-based. The settings on record: combined with Pomalidomide, benchmarked against daratumumab, N=2. On the procedure:
as §1
In the second experiment (FIG. 12B), normal donor PBMCs of the FcγRIII V/F genotype were treated with or without 0.5 μM pomalidomide (APEx Bio, cat #A4211) for 5 days. The resulting PBMCs were then washed and mixed with CFSE (Invitrogen cat #V12883) labeled MM1R myeloma target cells at an effector-to-target cell ratio of 10:1. The mixture was then treated with a dose range of the following antibodies: SEA-BCMA, daratumumab, or non-binding hIgG1k antibody control (Sigma cat #15154) with or without 0.5 μM pomalidomide (APEx Bio, cat #A4211) and incubated overnight. Percentage live MM1R cells were then determined using the viability dye 7-AAD (BD Biosciences, cat #559925) by flow cytometry.

Another data set deals with MOLP-8 luciferase cells. Briefly: Disseminated MM mouse tumor xenograft (luminescence). The format is in vivo, SCID mice. The settings on record: SEA-BCMA 3 mg/kg once IP combined with daratumumab 1 mg/kg weekly 5x, N=5. On the procedure:
Experiments were performed to test whether SEA-BCMA can combine effectively with daratumumab in a disseminated MM mouse tumor xenograft. MOLP-8 luciferase cells were injected IV into SCID animals and allowed to home to the bone marrow. Molp-8 cells express 2000 copies of BCMA and 323,000 copies of CD38 (daratumumab target). When sufficient luminescence was observed, animals were dosed once IP with SEA-BCMA, or SEA non targeted control at 3 mg/kg. Daratumumab was dosed weekly 5× at 1 mg/kg. Median luminescence plotted, N=5. The combination of SEA-BCMA and daratumumab yielded complete remissions in 4 of 5 animals.

For data set [3], the system named is relapsed or refractory multiple myeloma (RRMM). In words: Clinical antitumor activity (IMWG response, serum free light chain). The format is in vivo, human. On the procedure:
Response assessment included SPEP/immunofixation, UPEP/immunofixation (in patients with a baseline urine M protein ≥200 mg/24 hour or for assessment of VGPR or better), SFLC, quantitative immunoglobulins, and plasmacytoma evaluation by imaging (at baseline, every 4 cycles, and at additional time points if clinically indicated). These samples were collected for local assessment. In addition, blood were analyzed in the central laboratory using a modified SPEP for patients with IgG myeloma.
The determination of antitumor activity were based on response assessments made according to the 2016 IMWG Criteria (Kumar et al., Lancet Oncol 17(8): e328-46, 2016) and treatment decisions by the investigator were based on these assessments. Clinical response of sCR, CR, VGPR, PR, SD, and PD were determined at each assessment based on local laboratory (and the modified SPEP run by the central laboratory for patients with IgG MM), radiological, and clinical evaluations. Progressive disease was based on IMWG 2016 criteria and/or clinical disease progression per investigator. All IMWG responses were confirmed responses. When applicable, determination of immunophenotypic CR, MRD status, and minimal response were made per the IMWG 2016 criteria.
Kappa and lambda free light chains were quantified in serum of patients as surrogate markers of antitumor activity.
A patient was determined to have an OR if, based on the 2016 IMWG uniform response criteria, they achieve a sCR, CR, VGPR, or a PR. The ORR is defined as the proportion of patients with an OR per investigator. Patients whose disease response could not be evaluated per the 2016 IMWG uniform response criteria were scored as Not Evaluable for calculating the ORR.

The nature of data set [4]: Antitherapeutic antibody (ATA) assessment in patient serum. The format is in vivo, human. The settings on record: all samples tested. The source says:
A qualified electrochemiluminescence assay were used to assess ATA.

Regarding “SEA-BCMA: non-fucosylated monoclonal anti-BCMA antibody having heavy chain SEQ ID NO: 13 and light chain SEQ ID NO: 15”, the “block of Nirogacestat-increased NF-κB signaling” value in the data set with NF-κB p65 is listed as “partially blocked”. In addition, the “MM1R target cell killing” value in data set [1] and in data set [2] was “greater MM1R target cell killing” each time. The complete remissions with MOLP-8 luciferase cells is given as 4 of 5. Further, in data set [3] (1600 mg per dose once every 2 weeks vs 100-800 mg), the “response by dose level” value was “highest overall confirmed response rate”. Further, the response assessment entry in data set [3] (Patient A, 1600 mg every two weeks, 7 prior lines) is recorded as “very good partial response (VGPR)”. Also, the “time to which low level of sFLC was maintained” value in data set [3] (Patient A, 1600 mg every two weeks, after the first dose) was ≥ 40 days. For the same substance, the response result is recorded as “stable disease was observed” in data set [3] (all dose levels (100-1600 mg), after a minimum of 3 cycles of treatment); “Confirmed responses were also observed” in data set [3] (combination with dexamethasone, SEA-BCMA Day 1 and 15, dexamethasone Day 1, 8, 15, 22 of 28-day cycle); “Confirmed responses were also observed” in data set [3] (intensive dosing: 1600 mg q1wk for 8 doses, then once every two weeks); “maintaining stable disease even 10 months after commencement of treatment” in data set [3] (patient, 200 mg escalated to 1600 mg, 8 prior lines). Further, the “patients with confirmed very good partial response (VGPR)” value in data set [3] (among 3 response evaluable patients, 1600 mg) was found to be 1 patient. For the same substance, the “decrease of serum free light chain (sFLC) level” value in data set [3] (patient (Patient A), one week after first 1600 mg dose) is recorded as “about 90%”. Besides, the anti-SEA-BCMA antibodies result in data set [4] was “No anti-SEA-BCMA antibodies were found”.
